Reference: patent US20260207602A1, “EGFR INHIBITORS” (Blueprint Medicines Corporation, priority 2022, published 2026)

Tests used:
[1] = biological target: intracellular phosphorylation of EGFR (Tyr1068) in PC-9 cells (Homo sapiens, UniProt P00533, DEL746-750); assay: PC-9 pEGFR AlphaLISA assay; format: cell-based; details: 4 hours incubation, read-out: Phos EGFR PC9 IC50
Outline: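 PC-9 cells (EGFR del746-750) in phenol-free DMEM/10% FBS, adhered overnight, then exposed to 10-point 4-fold compound dilutions for 4 h at 37 °C. Lysates assayed for pEGFR Tyr1068 by AlphaLISA SureFire Ultra; IC50 from percent pEGFR inhibition vs log concentration.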

EGFR (d746-750) = biological target: T1, EGFR (d746-750) (Homo sapiens, UniProt P00533, DEL746-750); assay: Biochemical EGFR inhibition assay (Caliper mobility shift), EGFR (d746-750); details: biochemical Caliper mobility shift assay, EGFR Exon 19-del enzyme; read-out: Enz EGFR Exon 19-del IC50
T1 construct: purchased SignalChem E10-122JG
Outline: (§1)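 Kinase activity measured as phosphorylation of 2.5 µM 5-FAM-labelled peptide substrate in 100 mM HEPES pH 7.5, 10 mM MgCl2, 0.015% Brij-35, 1 mM DTT, 1.0% DMSO, at 1.0 mM ATP or ATP Km. Run at 25 °C to 10–20% conversion, stopped with EDTA; product resolved by mobility shift, apparent IC50 from percent activity vs log concentration.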

EGFR L858R = biological target: T2, EGFR L858R (Homo sapiens, UniProt P00533, L858R); assay: Biochemical EGFR inhibition assay (Caliper mobility shift), EGFR L858R; details: biochemical Caliper mobility shift assay, EGFR L858R enzyme; read-out: Enz EGFR L858R IC50
T2 construct: purchased SignalChem E10-122BG
Outline: as §1

T2 sequence (P00533 25-1210 L858R): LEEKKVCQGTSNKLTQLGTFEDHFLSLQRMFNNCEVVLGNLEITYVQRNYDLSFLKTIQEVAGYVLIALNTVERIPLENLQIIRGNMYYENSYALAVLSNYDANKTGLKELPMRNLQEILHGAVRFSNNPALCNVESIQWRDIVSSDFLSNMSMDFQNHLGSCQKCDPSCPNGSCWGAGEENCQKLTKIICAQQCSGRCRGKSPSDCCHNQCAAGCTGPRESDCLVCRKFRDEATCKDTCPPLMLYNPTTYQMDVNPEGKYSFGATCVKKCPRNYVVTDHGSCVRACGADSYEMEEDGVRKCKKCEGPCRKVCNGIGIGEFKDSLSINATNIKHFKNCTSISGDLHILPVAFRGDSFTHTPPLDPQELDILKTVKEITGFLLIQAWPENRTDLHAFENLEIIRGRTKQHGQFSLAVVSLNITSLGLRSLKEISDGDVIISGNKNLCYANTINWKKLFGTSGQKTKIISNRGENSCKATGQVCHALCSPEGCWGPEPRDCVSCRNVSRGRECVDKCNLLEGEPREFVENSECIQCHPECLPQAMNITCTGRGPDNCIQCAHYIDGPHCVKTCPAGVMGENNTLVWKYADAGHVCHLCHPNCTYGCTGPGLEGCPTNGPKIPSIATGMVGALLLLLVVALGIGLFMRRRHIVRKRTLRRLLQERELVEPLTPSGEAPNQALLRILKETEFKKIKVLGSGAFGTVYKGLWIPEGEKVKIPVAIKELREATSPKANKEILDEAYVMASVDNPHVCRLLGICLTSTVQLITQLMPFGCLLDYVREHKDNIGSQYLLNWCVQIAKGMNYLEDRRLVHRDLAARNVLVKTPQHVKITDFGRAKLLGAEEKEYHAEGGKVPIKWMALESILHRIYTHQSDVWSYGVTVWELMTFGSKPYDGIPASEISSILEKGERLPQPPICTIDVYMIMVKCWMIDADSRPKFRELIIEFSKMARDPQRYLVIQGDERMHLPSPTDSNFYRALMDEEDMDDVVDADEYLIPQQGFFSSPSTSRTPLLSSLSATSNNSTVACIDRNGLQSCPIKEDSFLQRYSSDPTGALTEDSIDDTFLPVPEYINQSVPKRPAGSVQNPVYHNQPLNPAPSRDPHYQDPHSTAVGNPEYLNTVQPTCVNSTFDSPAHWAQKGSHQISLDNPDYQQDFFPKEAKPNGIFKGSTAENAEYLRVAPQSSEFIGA
T1 sequence (P00533 with tags, fused parts or gaps DEL746-750 limits assumed): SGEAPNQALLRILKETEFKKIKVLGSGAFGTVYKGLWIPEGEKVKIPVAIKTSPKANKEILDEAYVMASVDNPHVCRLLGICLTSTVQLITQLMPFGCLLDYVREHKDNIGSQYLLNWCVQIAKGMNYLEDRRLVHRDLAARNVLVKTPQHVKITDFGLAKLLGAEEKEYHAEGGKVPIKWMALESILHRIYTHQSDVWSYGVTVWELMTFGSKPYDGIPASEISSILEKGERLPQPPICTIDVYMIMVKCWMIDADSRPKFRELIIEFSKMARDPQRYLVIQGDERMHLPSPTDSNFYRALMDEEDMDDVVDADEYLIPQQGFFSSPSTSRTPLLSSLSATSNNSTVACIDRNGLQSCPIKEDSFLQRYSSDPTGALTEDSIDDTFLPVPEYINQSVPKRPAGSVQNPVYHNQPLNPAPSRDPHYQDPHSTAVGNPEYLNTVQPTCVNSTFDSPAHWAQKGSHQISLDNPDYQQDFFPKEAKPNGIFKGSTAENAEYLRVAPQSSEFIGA
Sequence of intracellular phosphorylation of EGFR (Tyr1068) in PC-9 cells (P00533 with tags, fused parts or gaps DEL746-750): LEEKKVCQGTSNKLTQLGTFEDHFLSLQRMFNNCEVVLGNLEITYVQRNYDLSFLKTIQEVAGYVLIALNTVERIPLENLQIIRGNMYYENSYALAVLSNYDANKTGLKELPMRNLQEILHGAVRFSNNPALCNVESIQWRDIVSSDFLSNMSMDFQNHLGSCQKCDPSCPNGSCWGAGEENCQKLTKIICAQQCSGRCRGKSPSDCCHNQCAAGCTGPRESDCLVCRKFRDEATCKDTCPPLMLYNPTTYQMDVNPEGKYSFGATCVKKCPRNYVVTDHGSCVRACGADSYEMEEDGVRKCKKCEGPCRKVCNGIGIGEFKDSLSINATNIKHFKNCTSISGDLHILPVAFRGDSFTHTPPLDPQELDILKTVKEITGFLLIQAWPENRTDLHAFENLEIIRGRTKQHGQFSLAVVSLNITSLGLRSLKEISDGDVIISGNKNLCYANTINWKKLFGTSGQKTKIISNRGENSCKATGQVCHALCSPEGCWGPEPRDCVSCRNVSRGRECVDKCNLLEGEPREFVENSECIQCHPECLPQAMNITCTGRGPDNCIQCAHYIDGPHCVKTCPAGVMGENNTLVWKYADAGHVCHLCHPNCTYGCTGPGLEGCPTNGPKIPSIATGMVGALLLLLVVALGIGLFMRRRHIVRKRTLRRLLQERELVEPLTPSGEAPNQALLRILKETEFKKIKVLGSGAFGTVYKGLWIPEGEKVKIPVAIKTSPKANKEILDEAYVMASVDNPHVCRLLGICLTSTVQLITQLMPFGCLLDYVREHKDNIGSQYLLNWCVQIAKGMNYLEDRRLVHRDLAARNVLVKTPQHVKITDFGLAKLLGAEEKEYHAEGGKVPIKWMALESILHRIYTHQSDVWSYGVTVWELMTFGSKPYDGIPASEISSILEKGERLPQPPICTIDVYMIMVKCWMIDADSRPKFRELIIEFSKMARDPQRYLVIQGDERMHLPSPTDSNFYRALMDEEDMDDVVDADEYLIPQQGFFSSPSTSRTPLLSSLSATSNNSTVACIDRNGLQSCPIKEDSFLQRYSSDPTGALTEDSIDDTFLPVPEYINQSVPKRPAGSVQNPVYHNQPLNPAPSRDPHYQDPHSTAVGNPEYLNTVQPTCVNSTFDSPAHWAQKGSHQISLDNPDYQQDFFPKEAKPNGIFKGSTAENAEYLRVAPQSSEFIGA

| Structure (SMILES) | IC50 [1] [nM] | IC50 (EGFR (d746-750)) [nM] | IC50 (EGFR L858R) [nM] |
| --- | --- | --- | --- |
| COc1nn(C)cc1-c1cc(O[C@@H]2CCN(C)C[C@H]2F)c2c(Nc3ccc4ncsc4c3F)ncnc2c1 [Example 351, 7-fluoro-N-(5-(((3R,4R)-3-fluoro-1-methylpiperidin-4-yl)oxy)-7-(3-methoxy-1-methyl-1H-pyrazol-4-yl)quinazolin-4-yl)benzo[d]thiazol-6-amine] | ≤ 10 | ≤ 10 | ≤ 10 |
| CN1CCC(n2cc(-c3cc4ncnc(Nc5ccc6ncsc6c5F)c4cc3F)cn2)CC1 [Example 356, 7-fluoro-N-(6-fluoro-7-(1-(1-methylpiperidin-4-yl)-1H-pyrazol-4-yl)quinazolin-4-yl)benzo[d]thiazol-6-amine] | ≤ 10 | ≤ 10 | ≤ 10 |
| COc1nn(C)cc1-c1cc(O[C@@H]2CCN(C)C[C@@H]2F)c2c(Nc3ccc4ncsc4c3)ncnc2c1 [Example 362, N-(5-(((3S,4R)-3-fluoro-1-methylpiperidin-4-yl)oxy)-7-(3-methoxy-1-methyl-1H-pyrazol-4-yl)quinazolin-4-yl)benzo[d]thiazol-6-amine] | ≤ 10 | ≤ 10 | ≤ 10 |
| COc1nn(C)cc1-c1cc(O[C@@H]2CCNC[C@@H]2F)c2c(Nc3ccc4ncsc4c3)ncnc2c1 [Example 363, N-(5-(((3S,4R)-3-fluoropiperidin-4-yl)oxy)-7-(3-methoxy-1-methyl-1H-pyrazol-4-yl)quinazolin-4-yl)benzo[d]thiazol-6-amine] | ≤ 10 | ≤ 10 | ≤ 10 |
| COc1nn(C)cc1-c1cc(O[C@H]2CCN(C)C[C@H]2F)c2c(Nc3ccc4ncsc4c3)ncnc2c1 [Example 364, N-(5-(((3R,4S)-3-fluoro-1-methylpiperidin-4-yl)oxy)-7-(3-methoxy-1-methyl-1H-pyrazol-4-yl)quinazolin-4-yl)benzo[d]thiazol-6-amine] | ≤ 10 | ≤ 10 | ≤ 10 |
| COc1nn(C)cc1-c1cc(O[C@H]2CCNC[C@H]2F)c2c(Nc3ccc4ncsc4c3)ncnc2c1 [Example 365, N-(5-(((3R,4S)-3-fluoropiperidin-4-yl)oxy)-7-(3-methoxy-1-methyl-1H-pyrazol-4-yl)quinazolin-4-yl)benzo[d]thiazol-6-amine] | ≤ 10 | ≤ 10 | ≤ 10 |
| Cn1cc(-c2cc(O[C@H]3CCNC[C@H]3F)c3c(Nc4ccc5ncsc5c4)ncnc3c2)c(OC(F)F)n1 [Example 366, N-(7-(3-(difluoromethoxy)-1-methyl-1H-pyrazol-4-yl)-5-(((3R,4S)-3-fluoropiperidin-4-yl)oxy)quinazolin-4-yl)benzo[d]thiazol-6-amine] | ≤ 10 | ≤ 10 | 10.1 to 50 |
| COc1cc2ncnc(Nc3ccc4ncsc4c3)c2cc1N[C@H]1CCN(C)C[C@@H]1F [Example 393, N4-(benzo[d]thiazol-6-yl)-N6-((3S,4S)-3-fluoro-1-methylpiperidin-4-yl)-7-methoxyquinazoline-4,6-diamine] | ≤ 10 | ≤ 10 | ≤ 10 |
| CCN1CCN(C(=O)Nc2cc3c(Nc4ccc5ncsc5c4)ncnc3cc2-c2ccn(C)n2)[C@H](C)C1 [Example 397, (R)-N-(4-(benzo[d]thiazol-6-ylamino)-7-(1-methyl-1H-pyrazol-3-yl)quinazolin-6-yl)-4-ethyl-2-methylpiperazine-1-carboxamide] | ≤ 10 | ≤ 10 | ≤ 10 |
| CCN1CCN(C(=O)Nc2cc3c(Nc4ccc5ncsc5c4F)ncnc3cc2-c2ccn(C)n2)[C@@H](C)C1 [Example 398, (S)-4-ethyl-N-(4-((7-fluorobenzo[d]thiazol-6-yl)amino)-7-(1-methyl-1H-pyrazol-3-yl)quinazolin-6-yl)-2-methylpiperazine-1-carboxamide] | ≤ 10 | ≤ 10 | ≤ 10 |
| C[C@H]1CN(C)CCN1C(=O)Nc1cc2c(Nc3ccc4ncsc4c3)ncnc2cc1-c1ccn(C)n1 [Example 399, (S)-N-(4-(benzo[d]thiazol-6-ylamino)-7-(1-methyl-1H-pyrazol-3-yl)quinazolin-6-yl)-2,4-dimethylpiperazine-1-carboxamide] | ≤ 10 | ≤ 10 | ≤ 10 |
| COc1cc2ncnc(Nc3ccc4ncsc4c3)c2cc1NC(=O)CCN1CCCCC1 [Example 400, N-(4-(benzo[d]thiazol-6-ylamino)-7-methoxyquinazolin-6-yl)-3-(piperidin-1-yl)propanamide] | 10.1 to 50 | ≤ 10 | 10.1 to 50 |
| COc1cc2ncnc(Nc3ccc4ncsc4c3)c2cc1NC(=O)C1CCCN(C)C1 (stereo not drawn) [Example 401, N-(4-(benzo[d]thiazol-6-ylamino)-7-methoxyquinazolin-6-yl)-1-methylpiperidine-3-carboxamide] | 10.1 to 50 | 10.1 to 50 | 10.1 to 50 |
| COc1cc2ncnc(Nc3ccc4ncsc4c3)c2cc1NC(=O)C1CN(C)C1 [Example 402, N-(4-(benzo[d]thiazol-6-ylamino)-7-methoxyquinazolin-6-yl)-1-methylazetidine-3-carboxamide] | 10.1 to 50 | 10.1 to 50 | > 50.1 |

More lines, now with the values ahead:

| IC50 [1] [nM] | IC50 (EGFR (d746-750)) [nM] | IC50 (EGFR L858R) [nM] | Structure (SMILES) |
| --- | --- | --- | --- |
| ≤ 10 | ≤ 10 | ≤ 10 | CN1CCC2(COC2)C(Oc2cc(-c3cnn(C)c3)cc3ncnc(Nc4ccc5ncsc5c4)c23)C1 (stereo not drawn) [Example 352, N-(7-(1-methyl-1H-pyrazol-4-yl)-5-((7-methyl-2-oxa-7-azaspiro[3.5]nonan-5-yl)oxy)quinazolin-4-yl)benzo[d]thiazol-6-amine] |
| 10.1 to 50 | ≤ 10 | 10.1 to 50 | CN1CC[C@H](Oc2cc(-c3cn(C)nc3OC(F)F)cc3ncnc(Nc4ccc5ncsc5c4)c23)[C@H](F)C1 [Example 367, N-(7-(3-(difluoromethoxy)-1-methyl-1H-pyrazol-4-yl)-5-(((3R,4S)-3-fluoro-1-methylpiperidin-4-yl)oxy)quinazolin-4-yl)benzo[d]thiazol-6-amine] |
| > 50.1 | ≤ 10 | 10.1 to 50 | Cn1cc(-c2cc(O[C@H]3CNC[C@@H]3F)c3c(Nc4ccc5ncsc5c4)ncnc3c2)cn1 [Example 382, N-(5-(((3S,4S)-4-fluoropyrrolidin-3-yl)oxy)-7-(1-methyl-1H-pyrazol-4-yl)quinazolin-4-yl)benzo[d]thiazol-6-amine] |
| 10.1 to 50 | ≤ 10 | ≤ 10 | CN1C[C@H](Oc2cc(-c3cnn(C)c3)cc3ncnc(Nc4ccc5ncsc5c4)c23)[C@@H](F)C1 [Example 383, N-(5-(((3S,4S)-4-fluoro-1-methylpyrrolidin-3-yl)oxy)-7-(1-methyl-1H-pyrazol-4-yl)quinazolin-4-yl)benzo[d]thiazol-6-amine] |
| ≤ 10 | ≤ 10 | ≤ 10 | COc1nn(C)cc1-c1cc(OC2CCN(CC(F)F)CC2)c2c(Nc3ccc4ncsc4c3)ncnc2c1 [Example 386, N-(5-((1-(2,2-difluoroethyl)piperidin-4-yl)oxy)-7-(3-methoxy-1-methyl-1H-pyrazol-4-yl)quinazolin-4-yl)benzo[d]thiazol-6-amine] |
| ≤ 10 | ≤ 10 | ≤ 10 | C[C@H](CN1CCC1)Oc1cc(-c2cnn(C)c2)cc2ncnc(Nc3ccc4ncsc4c3)c12 [Example 394, (R)-N-(5-((1-(azetidin-1-yl)propan-2-yl)oxy)-7-(1-methyl-1H-pyrazol-4-yl)quinazolin-4-yl)benzo[d]thiazol-6-amine] |
| 10.1 to 50 | ≤ 10 | ≤ 10 | C[C@H](CN1CCOCC1)Oc1cc(-c2cnn(C)c2)cc2ncnc(Nc3ccc4ncsc4c3)c12 [Example 395, (R)-N-(7-(1-methyl-1H-pyrazol-4-yl)-5-((1-morpholinopropan-2-yl)oxy)quinazolin-4-yl)benzo[d]thiazol-6-amine] |
| ≤ 10 | ≤ 10 | 10.1 to 50 | CNC[C@@H](C)Oc1cc(-c2cnn(C)c2)cc2ncnc(Nc3ccc4ncsc4c3)c12 [Example 396, (R)-N-(7-(1-methyl-1H-pyrazol-4-yl)-5-((1-(methylamino)propan-2-yl)oxy)quinazolin-4-yl)benzo[d]thiazol-6-amine] |
| ≤ 10 | ≤ 10 | ≤ 10 | CC(C)Oc1cc(-c2cnn(C)c2)cc2ncnc(Nc3ccc4ncsc4c3)c12 [Example 405, N-(5-isopropoxy-7-(1-methyl-1H-pyrazol-4-yl)quinazolin-4-yl)benzo[d]thiazol-6-amine] |
| ≤ 10 | ≤ 10 | ≤ 10 | Cn1cc(-c2cc(OC3COC3)c3c(Nc4ccc5ncsc5c4)ncnc3c2)cn1 [Example 406, N-(7-(1-methyl-1H-pyrazol-4-yl)-5-(oxetan-3-yloxy)quinazolin-4-yl)benzo[d]thiazol-6-amine] |
| 10.1 to 50 | ≤ 10 | ≤ 10 | Cn1cc(-c2cc(OCC#N)c3c(Nc4ccc5ncsc5c4)ncnc3c2)cn1 [Example 407, 2-((4-(benzo[d]thiazol-6-ylamino)-7-(1-methyl-1H-pyrazol-4-yl)quinazolin-5-yl)oxy)acetonitrile] |
| 10.1 to 50 | ≤ 10 | 10.1 to 50 | Cn1cc(-c2cc(OCCN3CCC3)c3c(Nc4ccc5ncsc5c4)ncnc3c2)cn1 [Example 409, N-(5-(2-(azetidin-1-yl)ethoxy)-7-(1-methyl-1H-pyrazol-4-yl)quinazolin-4-yl)benzo[d]thiazol-6-amine] |
